Measured values reported in patent publication US8507536B2, “Gonadotropin-releasing hormone receptor antagonists and methods relating thereto” (Neurocrine Biosciences, Inc., priority 2007, dated 2013).

The compounds below were run against T1, human GnRH receptor (Homo sapiens, UniProt P30968) (assay: peptide competitive human receptor binding assays (radioligand displacement)). Conditions: tested in one or more of the peptide competitive human receptor binding assays.
T1 construct: expressed in transfected cells; membrane preparations
T1 sequence (P30968 1-328): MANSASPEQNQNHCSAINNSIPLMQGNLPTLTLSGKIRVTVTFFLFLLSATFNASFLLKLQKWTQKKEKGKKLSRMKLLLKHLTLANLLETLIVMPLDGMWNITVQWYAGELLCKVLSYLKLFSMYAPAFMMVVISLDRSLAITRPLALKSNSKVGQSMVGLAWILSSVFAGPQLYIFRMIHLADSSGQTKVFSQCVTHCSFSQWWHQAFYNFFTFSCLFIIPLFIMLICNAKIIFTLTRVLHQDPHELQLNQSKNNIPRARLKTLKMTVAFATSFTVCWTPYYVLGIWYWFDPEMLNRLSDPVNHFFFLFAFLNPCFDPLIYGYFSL
Description: HEK293 cells stably transfected with the human GnRH receptor are grown for two days after achieving confluence then are harvested by striking tissue culture flasks against a firm surface. Cells are collected by centrifugation at 1000 g for […]. Cell pellets are resuspended in 5% sucrose and homogenized using a polytron homogenizer for two 15 second homogenization steps. Cell homogenates are then centrifuged for 5 minutes at 3000 g to remove nuclei and the supernatant subsequently centrifuged for 30 minutes at 44,000 g to collect the membrane fraction. The membrane pellet is resuspended in GnRH binding buffer (10 mM HEPES, pH 7.5, 150 mM NaCl and 0.1% BSA) and aliquots immediately snap-frozen in liquid nitrogen and stored at −80° C. Protein content of the membrane suspension is determined using the Bio-Rad protein assay kit (Bio-Rad).
RBL cells stably transfected with the human GnRH receptor are grown to 80% confluency prior to harvesting. The cells are incubated at 37° C. for 10 min in 0.5 mM EDTA/PBS (Ca^++, Mg^++ free), and are dislodged from the plate by gentle rapping of the flasks. Cells are collected and pelleted by centrifugation at 1000 g for 5 minutes. Cell pellets are resuspended in buffer (DPBS supplemented with 10 mM MgCl2, 2 mM EGTA, pH=7.4), and cell lysis is performed using a pressure cell and applying N2 at a pressure of 900 psi for 30 min at 4° C. Unbroken cells and larger debris were removed by centrifugation at 1200 g for 10 min at 4° C. The cell membrane supernatant is then centrifuged at 45,000 g and the resulting membrane pellet is resuspended in assay buffer and homogenized on ice using a tissue homogenizer. Protein concentrations are determined using the Coomassie Plus Protein Reagent kit. Membranes are aliquoted and stored at −80° C. until ready for use.
Radioligand binding displacement assays using the peptide radioligands are performed in buffer containing 10 mM HEPES, 150 mM NaCl and 0.1% BSA, pH=7.5. Radioligand binding assays employing the use of [^3H]-1-(2,6-difluorobenzyl)-3-[(2R)-amino-2-phenethyl]-5-(2-fluoro-3-methoxyphenyl)-6-methyluracil (here the 3-methoxy group is tritiated) are run in buffer containing 50 mM Tris, 150 mM NaCl, 5 mM MgCl2, 0.01% saponin and 0.5 mM EDTA, pH=7.5. Radioligand displacement assays are performed by incubating radioligand ([^125I-Tyr^5, DLeu^6, NMeLeu^7, Pro^9-NEt]GnRH (0.1 nM), [His^5, ^125I-DTyr^6]GnRH (0.2 nM) (31) or [^3H]-1-(2,6-difluorobenzyl)-3-[(2R)-amino-2-phenethyl]-5-(2-fluoro-3-methoxyphenyl)-6-methyluracil (1 nM)), unlabeled competitors at concentrations ranging from 0.3 pM to 10 μM, and membranes for 2 hrs at rt. 10 to 20 μg protein/well is used from membrane preparations for human, monkey and rabbit GnRH receptor. 5 μg/well and 60 μg/well of membranes are used for rat and dog GnRH receptors, respectively. Binding assays are performed in either Millipore 96-well GF/C filtration plates (for ([^125I-Tyr^5, DLeu^6, NMeLeu^7, Pro^9-NEt]GnRH assays), or in 96 well low binding plates, which are subsequently filtered onto GF/C Unifilters. Filters are pretreated with 0.5% PEI for 30 min prior to use. Reactions are terminated by rapid vacuum filtration, and the filters are washed twice with 250 μL ice cold PBS pH=7.4 (0.01% Tween-20 is included in wash media for [His^5, ^125I-DTyr^6]GnRH and [^3H]-1-(2,6-difluorobenzyl)-3-[(2R)-amino-2-phenethyl]-5-(2-fluoro-3-methoxyphenyl)-6-methyluracil radioligands). The filters are dried, and the Millipore filters are monitored for radioactivity using a Cobra II gamma counter (Perkin Elmer Life Sciences). For assays filtered onto the GF/C Unifilter plates, 50 μL scintillation fluid is added to each filter, and radioactivity is monitored using a TopCount NXT. For iodinated radioligands, total radioligand is monitored on a gamma counter, and for the tritiated radioligand, total radioligand is monitored using a Perkin Elmer 1600TR liquid scintillation counter. […]

Row | Ki [nM] | SMILES
1 | ≤ 100 | COc1cc(Cl)c(-c2cnc(C(F)(F)F)cc2C#N)cc1S(=O)(=O)N(C)c1ncccc1C [Example 15-19]
2 | ≤ 100 | Cc1cccc2c1N(S(=O)(=O)c1ccc(Cl)c(-c3cnc(C(F)(F)F)cc3C#N)c1)CCC2 [Example 4-14]
3 | ≤ 100 | COc1cc(Cl)c(-c2cnc(C(F)(F)F)cc2C#N)cc1S(=O)(=O)N(C)[C@@H](C)c1ccccc1 [Example 15-44]
4 | ≤ 100 | O=S(=O)(c1ccc(Cl)c(-c2cnc(Cl)cc2Cl)c1)N1CCCc2ccccc21 [Example 5-3]
5 | ≤ 100 | N#Cc1cc(C(F)(F)F)ncc1-c1cc(S(=O)(=O)N2CCCCc3ccccc32)c(O)cc1Cl [Example 8-2]
6 | ≤ 100 | CC(C)(C)OC(=O)CCCOc1cc(Cl)c(-c2cnc(C(F)(F)F)cc2C#N)cc1S(=O)(=O)N1CCCCc2ccccc21 [Example 6-1, 4-[5-chloro-4-(4-cyano-6-trifluoromethyl-pyridin-3-yl)-2-(2,3,4,5-tetrahydro-benzo[b]azepine-1-sulfonyl)-phenoxy]-butyric acid tert-butyl ester]
7 | ≤ 100 | CC1(C)CCN(S(=O)(=O)c2cc(-c3cnc(C(F)(F)F)cc3C#N)c(Cl)cc2CC(=O)O)c2ccccc21 [Example 17-1, [5-Chloro-4-(4-cyano-6-trifluoromethyl-pyridin-3-yl)-2-(4,4-dimethyl-3,4-dihydro-2H-quinoline-1-sulfonyl)-phenyl]-acetic acid]
8 | ≤ 100 | CC1(C)CCN(S(=O)(=O)c2cc(-c3cnc(C(F)(F)F)cc3C#N)c(Cl)cc2OCCC(=O)O)c2ccccc21 [Example 12-3, 3-[5-chloro-4-(4-cyano-6-trifluoromethyl-pyridin-3-yl)-2-(4,4-dimethyl-3,4-dihydro-2H-quinoline-1-sulfonyl)-phenoxy]-propionic acid]
9 | ≤ 100 | Cc1cc(C(F)(F)F)ncc1-c1cc(S(=O)(=O)N2CCCCc3ccccc32)c(OCCCC(=O)O)cc1Cl [Example 7-2]
10 | ≤ 100 | CN(c1ccccn1)S(=O)(=O)c1cc(-c2cnc(C(F)(F)F)cc2C#N)c(Cl)cc1OCCC(=O)O [Example 18-2, 3-[5-chloro-4-(4-cyano-6-trifluoromethyl-pyridin-3-yl)-2-(methyl-pyridin-2-yl-sulfamoyl)-phenoxy]-propionic acid]
11 | ≤ 100 | COc1ccccc1N(C)S(=O)(=O)c1cc(-c2cnc(C(F)(F)F)cc2C#N)c(Cl)cc1OC [Example 15-16]
12 | ≤ 100 | CC1CCc2ccccc2N1S(=O)(=O)c1ccc(Cl)c(-c2cnc(Cl)cc2Cl)c1 (stereo not shown) [Example 5-6]
13 | ≤ 100 | Cc1cccc2c1N(S(=O)(=O)c1ccc(Cl)c(-c3cnc(C(F)(F)F)cc3C#N)c1)CCCO2 [Example 4-20]
14 | ≤ 100 | COc1cc(Cl)c(-c2cnc(C(F)(F)F)cc2C#N)cc1S(=O)(=O)N(C)c1ccccn1 [Example 15-18]
15 | ≤ 100 | Cc1cc(Cl)ncc1-c1cc(S(=O)(=O)N2CCCc3ccccc32)ccc1Cl [Example 4-3]
16 | ≤ 100 | N#Cc1cc2ccccc2nc1-c1cc(S(=O)(=O)N2CCCCc3ccccc32)c(O)cc1Cl [Example 8-3]
17 | ≤ 100 | CC(C)(C)OC(=O)COc1cc(Cl)c(-c2cnc(C(F)(F)F)cc2C#N)cc1S(=O)(=O)N1CCCCc2ccccc21 [Example 6-5]
18 | ≤ 100 | COc1ccccc1N(C)S(=O)(=O)c1ccc(Cl)c(-c2cnc(Cl)cc2Cl)c1 [Example 5-2]

Row | Ki [nM] | SMILES
19 | ≤ 100 | COc1cc(Cl)c(-c2cnc(C(F)(F)F)cc2C#N)cc1S(=O)(=O)N(C)c1c(C)cccc1OC [Example 15-15]
20 | ≤ 100 | COc1cccc(CN(C)S(=O)(=O)c2cc(-c3cnc(C(F)(F)F)cc3C#N)c(Cl)cc2OC)c1 [Example 15-32]
21 | ≤ 100 | N#Cc1cc(C(F)(F)F)ncc1-c1cc(S(=O)(=O)N2CCCOc3ccccc32)ccc1Cl [Example 4-24]
22 | ≤ 100 | COc1ccccc1CN(C)S(=O)(=O)c1cc(-c2cnc(C(F)(F)F)cc2C#N)c(Cl)cc1OC [Example 15-29]
23 | ≤ 100 | N#Cc1cc(C(F)(F)F)ncc1-c1cc(S(=O)(=O)N2CCOc3ccccc32)ccc1Cl [Example 4-15]
24 | ≤ 100 | COc1cc(Cl)c(-c2cnc(C(F)(F)F)cc2C#N)cc1S(=O)(=O)N(C)c1cccc(F)c1 [Example 15-11]
25 | ≤ 100 | COc1cccc(N(C)S(=O)(=O)c2cc(-c3cnc(C(F)(F)F)cc3C#N)c(Cl)cc2OC)c1 [Example 15-14]
26 | ≤ 100 | N#Cc1cc(C(F)(F)F)ncc1-c1cc(S(=O)(=O)N2CCCCc3ccccc32)c(OCCCC(=O)O)cc1Cl [Example 7-1, 4-[5-chloro-4-(4-cyano-6-trifluoromethyl-pyridin-3-yl)-2-(2,3,4,5-tetrahydro-benzo[b]azepine-1-sulfonyl)-phenoxy]-butyric acid]
27 | ≤ 100 | CCCCNS(=O)(=O)c1cc(-c2cnc(C(F)(F)F)cc2C#N)c(Cl)cc1OC [Example 15-28]
28 | ≤ 100 | CN(c1ccccn1)S(=O)(=O)c1cc(-c2cnc(C(F)(F)F)cc2C#N)c(Cl)cc1OCCCC(=O)O [Example 18-1, 4-[5-chloro-4-(4-cyano-6-trifluoromethyl-pyridin-3-yl)-2-(methyl-pyridin-2-yl-sulfamoyl)-phenoxy]-butyric acid]
29 | ≤ 100 | Cc1cc(C#N)ncc1-c1cc(S(=O)(=O)N2CCCCc3ccccc32)c(OCCC(=O)O)cc1Cl [Example 10-1, 3-[5-chloro-4-(6-cyano-4-methyl-pyridin-3-yl)-2-(2,3,4,5-tetrahydro-benzo[b]azepine-1-sulfonyl)-phenoxy]-propionic acid]
30 | ≤ 100 | COc1cc(Cl)c(-c2cnc(C(F)(F)F)cc2C#N)cc1S(=O)(=O)N(C)CC(C)(C)C [Example 15-30]
31 | ≤ 100 | COc1cc(Cl)c(-c2cnc(C(F)(F)F)cc2C#N)cc1S(=O)(=O)N(C)Cc1cccc(F)c1 [Example 15-34]
32 | ≤ 100 | COc1cc(Cl)c(-c2cnc(C(F)(F)F)cc2C#N)cc1S(=O)(=O)N(C)c1ccccc1F [Example 15-12]
33 | ≤ 100 | COc1cc(Cl)c(-c2cnc(C(F)(F)F)cc2C#N)cc1S(=O)(=O)N(C)Cc1ccccc1F [Example 15-35]
34 | ≤ 100 | O=S(=O)(c1ccc(Cl)c(-c2cnc(Cl)cc2Cl)c1)N1CCOc2ccccc21 [Example 5-4]
35 | ≤ 100 | COc1cc(Cl)c(-c2cnc(C(F)(F)F)cc2C#N)cc1S(=O)(=O)N(C)c1ccccc1 [Example 15-1, 4-chloro-5-(4-cyano-6-trifluoromethyl-pyridin-3-yl)-2-methoxy-N-methyl-N-phenyl-benzenesulfonamide]
36 | ≤ 100 | CCOC(=O)CN(C)S(=O)(=O)c1cc(-c2cnc(C(F)(F)F)cc2C#N)c(Cl)cc1OC [Example 15-26]

Row | SMILES | Ki [nM]
37 | CC1(C)CCN(S(=O)(=O)c2cc(-c3cnc(C(F)(F)F)cc3C#N)c(Cl)cc2OCCCCO)c2ccccc21 [Example 11-1, 5-[2-chloro-5-(4,4-dimethyl-3,4-dihydro-2H-quinoline-1-sulfonyl)-4-(4-hydroxy-butoxy)-phenyl]-2-trifluoromethyl-isonicotinonitrile] | ≤ 100
